Assay results as given in patent US20130267544A1, “Use of LP-PLA2 Inhibitors in the Treatment and Prevention of Eye Diseases” (priority 2010, published 2013).
Where two headings read alike, the source gives them in different places.

Key:
[1] = test system: STZ-induced diabetic Brown Norway rats (blood-retinal barrier); conditions: hyperglycaemic BN rats
Method: (§1) Brown Norway (BN) rats, 6 weeks of age and weighing 180-200 g, were used in this study; the rats had free access to food and water and were maintained in cages in an environmentally controlled room with a 12 hour light-dark cycle. Diabetes was induced by following dosing of animals with streptozotocin (65 mg/kg/day dosed i.p. for each of the first 3 days of the protocol) in 10 mM sodium citrate-buffer pH 4.6. […] Animals which maintained an elevated blood glucose level of over 9 mM were deemed diabetic.
Eyes were enucleated, hemisected along the ora serrata, and the vitreous humor removed. Eyecups were immersion fixed in 4% (w/v) paraformaldehyde for 30 min, washed in PBS, and the retinas detached. Fixed retinas were cryoprotected, embedded in Tissue-Tek OCT compound snap frozen in liquid nitrogen-cooled isopentane, and 12-μm cryosections prepared. Sections was immunostained with antibodies specific for rat immunoglobulin G (IgG) in order to locate any nonvascular IgG and isolectin B4 to determine the location of retinal blood vessels in the retinal sections and viewed on a confocal microscope. Fluorescence was visualized by using a Nikon TE-2000 C1 confocal system (Nikon Ltd, Kingston upon Thames, UK). In some cases retinal blood vessels were highlighted using propridium iodide staining

[2] = test system: STZ-induced diabetic Brown Norway rats (blood-retinal barrier); conditions: BN rats, 2 week study, 10 mg/kg i.p. QD; not statistically robust
Method: as §1

[3] = molecular target: Lp-PLA2 (Rattus norvegicus, UniProt A6JJ35); conditions: hyperglycemic BN rats, 10 mg/kg i.p. QD
Method: as §1

[4] = test system: STZ-induced diabetic SD rats
Method: as §1, with “Male SD” for “Brown Norway (BN)”, “(50” for “(65”
The retinal images were scanned by a commercially available Fourier-domain OCT (RTVue-100; version 2.1; Optovue, Inc., California, USA). Super-luminescent diode light source with a central wavelength of 840 nm and a full bandwidth of 50 nm was adapted to the OCT. The retinal thickness was accessed by the automatic software of RTVue scanner with manual adjusting. The retinal thickness was defined from layer of retinal pigment eitheluim (RPE) to retinal ganglion cell layer (GCL).
Two separate studies were conducted. Retinal images were taken on experimental day 4, 10, 13, 17, 22, 28 and 31 for the second study and day 0, 4, 7, 10, 14 and 18 for the first study. Animals were anesthetized by inhalation of 5% isoflourane and pupils were diluted with 1% tropicamide and 1% phenylephrine. Prior to OCT analysis animals were fixed on a support frame and the eye to be imaged positioned to align with the center of the scan beam perpendicular to the fundus. […] After imaging, the animals were recovered and returned to cages. Retinal thickness from six time points of OCT measurement were analyzed by repeated measures analysis of variance (ANOVA) using Prism software. […] All data were expressed as mean value±SEM.

Lp-PLA2, sequence (A6JJ35 22-440): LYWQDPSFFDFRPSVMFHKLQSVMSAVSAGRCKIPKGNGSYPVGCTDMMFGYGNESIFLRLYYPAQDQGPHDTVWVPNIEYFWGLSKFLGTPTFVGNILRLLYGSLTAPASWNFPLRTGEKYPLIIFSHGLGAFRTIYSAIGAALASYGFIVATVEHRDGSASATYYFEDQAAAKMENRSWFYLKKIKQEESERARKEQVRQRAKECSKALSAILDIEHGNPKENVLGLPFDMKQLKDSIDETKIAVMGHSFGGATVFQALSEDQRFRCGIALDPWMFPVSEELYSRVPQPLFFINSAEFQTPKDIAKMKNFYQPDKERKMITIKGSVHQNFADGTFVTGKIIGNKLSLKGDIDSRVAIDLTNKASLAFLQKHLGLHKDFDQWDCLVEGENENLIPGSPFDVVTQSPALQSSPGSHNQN

CN(C)CCN(Cc1ccc(-c2ccc(C(F)(F)F)cc2)cc1)C(=O)Cn1cc(Cc2cnn(C)c2)c(=O)nc1SCc1ccc(F)cc1 [Lp-PLA2 inhibitor '495]
albumin leakage from retinal vessels (immunohistochemistry) ([1]; 10 mg/kg QD i.p., 4 weeks, listed as SB435495, 10 mg/kg): less leakage and extensive co-localization of albumin with retinal blood vessels
albumin leakage from retinal vessels (immunohistochemistry) ([1]; 20 mg/kg QD i.p., 2 weeks, 20 mg/kg): albumin is contained intravascularly and co-localised with retinal vessels
albumin leakage from retinal vessels (immunohistochemistry) ([1]; 20 mg/kg QD i.p., 2 weeks, listed as SB435495, 20 mg/kg): less leakage and extensive co-localization of albumin with retinal blood vessels
Evans blue (albumin) leakage in retinae [2]: reduced this leak to levels exhibited by the normo-glycaemic group
trough Lp-PLA2 inhibition ([3]; 2 weeks study): 89.7%
trough Lp-PLA2 inhibition ([3]; 4 week study): 93.2%
STZ-induced retinal thinning (neuroretinal thickness by OCT) ([4]; first study, 10 mg/kg/day i.p. from day 8, assessed at 10 and 18 days, p<0.05): partially but significantly inhibited
incidence of sub-retinal fluid accumulation by OCT ([4]; hyperglycaemic SD rats, 10 mg/kg/day, day 14): no animals to have overt retinal fluid accumulation
STZ-induced retinal thinning (neuroretinal thickness by OCT) ([4]; second study, 10 mg/kg/d i.p. from day 4, vs vehicle-treated diabetic rats, p<0.001): significant attenuation in the development of retinal thinning
